Results from patent US9353152B2, “Induction of the mitochondrial permeability transition” (NewSouth Innovations Pty Limited, priority 2002, dated 2016).
“Also recorded” adds a separate entry of the source. Like-named read-outs stand apart in the source and are kept apart here. Residues, ends and D or L forms follow the SMILES beside them. *: point of attachment. X2 = O=C(C*)Nc1ccc([As](O)O)cc1

Assays:
MPTP [1] = biological target: T1, MPTP (Rattus norvegicus, UniProt Q09073); assay type: biochemical
T1 construct: Mitochondria were isolated from the livers of ˜250 g male Wistar rats; from tissue; host or cells: rat liver mitochondria (male Wistar rats)
T1 sequence (Q09073 2-298 limits assumed): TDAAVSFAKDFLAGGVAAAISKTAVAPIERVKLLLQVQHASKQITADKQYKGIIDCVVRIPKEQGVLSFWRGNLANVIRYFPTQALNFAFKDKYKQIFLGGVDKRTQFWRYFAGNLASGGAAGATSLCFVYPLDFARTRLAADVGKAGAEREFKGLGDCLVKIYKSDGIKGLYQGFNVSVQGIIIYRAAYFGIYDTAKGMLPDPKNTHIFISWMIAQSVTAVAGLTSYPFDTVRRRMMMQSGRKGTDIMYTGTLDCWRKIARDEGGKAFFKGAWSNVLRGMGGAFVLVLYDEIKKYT

BAE cells [2] = system: BAE cells
BAE cells [3] = assay: cells; conditions: Bos taurus, read-out: IC50 (μM)*
MPTP [4] = biological target: T1, MPTP; assay: Mitochondria swelling assay (MPT induction, decrease in light scattering at 520 nm); assay type: biochemical; conditions: for swelling of isolated rat liver mitochondria: GSAO 25-200 μM, GSAA, GSCA 100 μM, 60 min
BAE cells [5] = assay: Cell viability assay, attached cells (methylene blue), proliferating or growth-quiescent cells; assay type: cell-based, bovine
Procedure: BAE or HMEC-1 cells were seeded at a density of 10^4 cells per cell into 96 well plates and allowed to adhere overnight and then treated as indicated.

BAE cells [6] = assay type: cell-based, bovine
CAM angiogenesis = assay: Chick chorioallantoic membrane (CAM) angiogenesis assay; assay type: in vivo; conditions: 5, 10 or 50 μg per pellet, 48 h
Procedure: Fertilised 3 day-old white Leghorn eggs (Spafas, Norwich, Conn.) were cracked, the embryos with intact yolks placed in 20×100 mm petri dishes and incubated for 3 days at 37° C. and 3% CO2 (Folkman, 1985). Methylcellulose (Fisher Scientific, Fair Lawn, N.J.) discs containing 5, 10 or 50 μg of either GSAA or GSAO were then applied to the CAM of individual embryos and incubated for 48 h at 37° C. and 3% CO2. The discs were made by desiccation of GSAA or GSAO in 10 μl of 0.45% methycellulose on teflon rods. The CAMs were observed using a stereomicroscope and scored for no obvious affect or inhibition of CAM angiogenesis as defined by avascular zones. On some occasions CAM blood vessels were injected with India ink and photographed.

BxPC-3 tumours = assay: Primary tumour growth assay; assay type: in vivo, SCID mice; conditions: 10 mg/kg/day s.c., all experiments (BxPC-3, HT1080, LLC)
Procedure: (§1) Female 7 to 9 week old SCID or C57Bl6/J mice were used (Massachusetts General Hospital, Boston, Mass.). Mice were held in groups of 3 to 5 at a 12 hour day and night cycle and were given animal chow and water ad libidum. SCID or C57Bl6/J mice were anaesthetised by inhalation of isoflurane, the dorsal skin shaved and cleaned with ethanol, and a suspension of 2.5×10^6 BxPC-3, HT1080 or LLC cells in 0.2 mL of PBS, or saline for LLC cells, was injected S.C. in the proximal midline. LLC cells were prepared according to O'Reilly et al. (1997). Tumour volume was calculated using the relationship, a·b^2·0.52, where a is the longest and b the shortest diameter.

[7] = Tolerability in tumour-bearing mice; assay type: in vivo, SCID or C57Bl6/J mice
Procedure: as §1

[8] = biological target: T2, mitochondrial permeability transition pore (Rattus norvegicus, UniProt Q09073); assay type: biochemical; conditions: FIG. 18 as printed
T2 construct: Mitochondria were isolated from the livers of ˜250 g male Wistar rats; from tissue; host or cells: rat liver mitochondria (male Wistar rats)
T2 sequence (Q09073 2-298 limits assumed): T1 sequence (Q09073 2-298 limits assumed)

SMILES	MPTP Swelling Rate Increase/GSAO* Mean (MPTP [1])	Fold Increase (BAE cells [2])	IC50 (BAE cells [3]) [µM]	swelling of isolated rat liver mitochondria (MPTP [4])	other results
NCC(=O)NCC(=O)NC(CSCC(=O)Nc1ccc([As](O)O)cc1)C(=O)O (stereo not drawn) [Compound 7, H-Gly-Gly-Cys(CH2CONHC6H4-p-As{OH}2)—OH]	2.2	0.44	19		
CC(C)C(N)C(=O)NC(C(=O)NC(CSCC(=O)Nc1ccc([As](O)O)cc1)C(=O)NCC(=O)O)C(C)O (stereo not drawn) [Compound 8, H-Val-Thr-Cys(CH2CONHC6H4-p-As{OH}2)-Gly-OH] (H-VTC(X2)G-OH; configuration not given here)	2.1	0.95	8.8		
O=C(O)Cn1nnnc1SCC(=O)Nc1ccc([As](O)O)cc1 [Compound 21, 5-S—(CH2CONHC6H4-p-As{OH}2)-1-tetrazolacetic acid]	2.8	0.16	51.3		
N[C@@H](CCC(=O)N[C@@H](CSCC(=O)Nc1ccc([As](=O)(O)O)cc1)C(=O)NCC(=O)O)C(=O)O [GSAA, 4-(N—((S-glutathionyl)acetyl)amino)-benzenearsonic acid, reference compound]				without effect	effect on the viability of proliferating BAE cells (BAE cells [5]): no significant effect; effect on O2^− or H2O2 levels (BAE cells [6]): no effect; inhibition of CAM angiogenesis (avascular zones) (CAM angiogenesis): did not inhibit CAM angiogenesis; also recorded: no affects; inhibition of the rate of tumour growth compared to vehicle alone (BxPC-3 tumours): < 20%; adverse affects of administration ([7]; 10 mg/kg/day s.c.): no apparent adverse affects; morphological changes in the heart, lungs, liver, kidneys, and spleen ([7]; 10 mg/kg/day s.c.): no morphological changes; average mice weights over the course of the experiments ([7]; GSAO versus GSAA treatment groups): the same
N[C@@H](CCC(=O)N[C@@H](CSCC(=O)Nc1ccc(C(=O)O)cc1)C(=O)NCC(=O)O)C(=O)O [GSCA, 4-(N—((S-glutathionyl)acetyl)amino)benzoic acid]				without effect	effect on the viability of proliferating BAE cells (BAE cells [5]; concentrations up to 1.0 mM): no significant effect
[Mg+2] [Mg^2+]					blocking of the effect of GSAO on pore opening (MPTP [4]; 100 μM GSAO with 3 mM Mg^2+, 100 μM EGTA, 10 μM BKA, 5 μM CsA or 8 mM ADP): blocked; blocking of GSAO-dependent swelling [8]: blocked
